According to patent US9340577B2, “HLA binding motifs and peptides and their uses” (priority 1992, dated 2016):
No end group written: not given here.

Legend:
Assay in all cases: biochemical
DRB1*1201 = DRB1*1201 (Homo sapiens, UniProt P01903+P01911, A100R/A169T/D57E/D86V/F55L/H45Y/K41T/L162R/M171V/P40S/Q125H/Q178H/Q39Y/Q99D/R42G/S66L/T262R/V114A/V67L/W38E/Y59H/Y61H/Y89S); type: binding
DRB1*0901 = DRB1*0901 (Homo sapiens, UniProt P01903+P01911, A100R/A103E/D57H/D86V/F55Y/F60I/F76Y/I96F/K127E/L162R/M171V/P40D/Q125H/Q99R/R33Q/R42F/S133A/S66N/T210M/V115G/W38K/Y107V/Y59G/Y89S); type: binding
DRB1*1101 = DRB1*1101 (Homo sapiens, UniProt P01903+P01911, A100R/A169T/A87E/I96F/K41T/L162R/M171V/P40S/Q125H/Q178H/Q39Y/Q99D/R42S/S66Y/T262R/V115G/W38E)
Chain of DRB1*1101 (P01903 26-254 limits assumed, other chains not shown): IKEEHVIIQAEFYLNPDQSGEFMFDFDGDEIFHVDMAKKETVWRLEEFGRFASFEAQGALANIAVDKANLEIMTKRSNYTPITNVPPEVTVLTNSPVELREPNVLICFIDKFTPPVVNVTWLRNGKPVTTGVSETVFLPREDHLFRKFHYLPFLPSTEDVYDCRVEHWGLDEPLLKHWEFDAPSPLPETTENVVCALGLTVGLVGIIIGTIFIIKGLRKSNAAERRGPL

DRB1*0802 = DRB1*0802 (Homo sapiens, UniProt P01903+P01911, A100R/A103L/A169T/F76Y/H45Y/I96F/K41T/L162R/M171V/P40S/Q125H/Q178H/Q39Y/Q99D/R218S/R42G/S66Y/V115G/W38E); type: binding
DR7 (DRB1*0701) = DR7 (DRB1*0701) (Homo sapiens, UniProt P01903+P01911, A100R/A102G/A103Q/D57E/D86V/E43K/F76Y/K127E/L162R/M171V/P40G/Q125H/Q99D/R33Q/R42Y/R54Q/S133A/S66F/T210M/V115G/Y107V/Y59L/Y89S); type: binding
DRB4*0101 = DRB4*0101 (Homo sapiens, UniProt P01903+P13762, G164S); type: binding
DRB5*0101 = DRB5*0101 (Homo sapiens, UniProt P01903+Q30154); conditions: Binding affinity DRB5 *0101
DRB1*1501 = DRB1*1501 (Homo sapiens, UniProt P01903+P01911); type: binding
DR1 (DRB1*0101) = DR1 (DRB1*0101) (Homo sapiens, UniProt P01903+P01911, A100R/D57E/F55L/F60I/F76Y/I96L/L162R/M171V/P40L/Q125E/R42F/V115G/Y59C); type: binding
DR4w4 (DRB1*0401) = DR4w4 (DRB1*0401) (Homo sapiens, UniProt P01903+P01911, A100K/A169T/F76Y/I96L/K127E/L162R/M171V/N62H/P40V/Q125Y/R42H/S133A/S149N/S66Y/V115G/V209L/W38E); type: binding
DRB1*1302 = DRB1*1302 (Homo sapiens, UniProt P01903+P01911, A100E/A169T/K41T/L162R/M171V/P40S/Q125H/Q178H/Q39Y/Q99D/R42S/S66N/T262R/V115G/W38E/Y61H); type: binding
Chain of DRB1*1302 (P01903 26-254 limits assumed, other chains not shown): as above

| Molecule | IC50 (DRB1*1201) [µM] | IC50 (DRB1*0901) [µM] | IC50 (DRB1*1101; […]) [µM] | IC50 (DRB1*0802) [µM] | IC50 (DR7 (DRB1*0701)) [µM] | IC50 (DRB4*0101) [µM] | IC50 (DRB5*0101) [µM] | IC50 (DRB1*1101; Binding affinity DRB1 *1101) [µM] | IC50 (DRB1*1501) [µM] | IC50 (DR1 (DRB1*0101)) [µM] | IC50 (DR4w4 (DRB1*0401)) [µM] | IC50 (DRB1*1302) [µM] |
| --- | --- | --- | --- | --- | --- | --- | --- | --- | --- | --- | --- | --- |
| SLSLGFLFLLFFWLD [Peptide 68.0022] | 1.22 | > 20 | > 20 | > 20 | > 20 | > 20 | > 20 | – | – | – | – | – |
| CC[C@H](C)[C@H](NC(=O)[C@H](CCC(=O)O)NC(=O)[C@H](CC(N)=O)NC(=O)CNC(=O)[C@H](CC(=O)O)NC(=O)[C@H](CCC(=O)O)NC(=O)[C@H](CC(N)=O)NC(=O)[C@@H](NC(=O)[C@@H](NC(=O)[C@H](CO)NC(=O)[C@@H](NC(=O)[C@@H](N)Cc1ccc(O)cc1)[C@@H](C)CC)[C@@H](C)CC)[C@@H](C)CC)C(=O)N[C@@H](Cc1ccccc1)C(=O)N[C@@H](CC(N)=O)C(=O)N[C@H](C(=O)O)[C@@H](C)O [Peptide 68.0165] | > 20 | > 20 | – | > 20 | > 20 | – | > 20 | > 20 | – | – | – | – |
| CC[C@H](C)[C@H](NC(=O)[C@H](CO)NC(=O)[C@H](CO)NC(=O)[C@H](CC(=O)O)NC(=O)[C@H](C)NC(=O)[C@H](CC(N)=O)NC(=O)[C@@H](NC(=O)[C@H](Cc1ccc(O)cc1)NC(=O)[C@H](C)NC(=O)[C@@H](NC(=O)CNC(=O)[C@H](CCCNC(=N)N)NC(=O)[C@@H](N)CCC(=O)O)C(C)C)[C@@H](C)CC)C(=O)N[C@@H](CCC(=O)O)C(=O)NCC(=O)O [Peptide 68.0109] | > 20 | > 20 | – | > 20 | > 20 | – | – | > 20 | > 20 | – | – | – |
| IGYYDAQKLLEKMGG [Peptide 68.0103] | > 20 | > 20 | – | – | > 20 | – | – | > 20 | – | – | – | – |
| CC[C@H](C)[C@H](NC(=O)[C@H](CO)NC(=O)[C@@H](NC(=O)CNC(=O)[C@H](CCC(=O)O)NC(=O)[C@@H]1CCCN1)C(C)C)C(=O)N[C@@H](Cc1c[nH]c2ccccc12)C(=O)N[C@@H](CC(N)=O)C(=O)N1CCC[C@H]1C(=O)N[C@H](C(=O)N[C@@H](CC(C)C)C(=O)N[C@@H](CC(C)C)C(=O)N[C@@H](Cc1c[nH]c2ccccc12)C(=O)N[C@@H](CCC(N)=O)C(=O)N1CCC[C@H]1C(=O)O)[C@@H](C)CC [Peptide 68.0033] | 7.97 | > 20 | – | > 20 | – | – | > 20 | > 20 | – | – | – | – |
| CSCC[C@H](NC(=O)[C@H](CC(C)C)NC(=O)[C@@H]1CCCN1C(=O)[C@@H](NC(=O)[C@H](CS)NC(=O)[C@H](CC(=O)O)NC(=O)[C@@H](NC(=O)[C@H](CCCNC(=N)N)NC(=O)[C@H](CC(C)C)NC(=O)[C@@H](NC(=O)[C@H](Cc1ccc(O)cc1)NC(=O)[C@@H](N)CC(N)=O)[C@@H](C)O)C(C)C)[C@@H](C)O)C(=O)N[C@@H](Cc1ccc(O)cc1)C(=O)N[C@@H](CO)C(=O)N[C@@H](CC(C)C)C(=O)O [Peptide 68.0112] | 0.594 | > 20 | – | – | > 20 | – | > 20 | – | – | – | – | – |
| VSFLSALKLFLKGVP [Peptide 89.0053] | 0.082 | 2.12 | – | 0.29 | – | 0.023 | – | 0.064 | 1.45 | 0.023 | 1.57 | – |
| LTELYFEKGEYFVEM [Peptide 68.0153] | 12.7 | > 20 | – | – | – | – | – | > 20 | > 20 | – | – | – |
| CC[C@H](C)[C@H](NC(=O)[C@H](CO)NC(=O)[C@H](CO)NC(=O)[C@H](CC(=O)O)NC(=O)[C@H](C)NC(=O)[C@H](CC(N)=O)NC(=O)[C@@H](NC(=O)[C@H](Cc1ccc(O)cc1)NC(=O)[C@H](C)NC(=O)[C@@H](N)C(C)C)[C@@H](C)CC)C(=O)N[C@@H](CCC(=O)O)C(=O)NCC(=O)N[C@@H](CC(N)=O)C(=O)N[C@@H](Cc1ccc(O)cc1)C(=O)N[C@H](C(=O)O)[C@@H](C)O [Peptide 68.0177] | 8.25 | – | – | > 20 | – | – | > 20 | > 20 | > 20 | – | – | – |
| CC[C@H](C)[C@H](NC(=O)[C@H](CCCCN)NC(=O)[C@H](CCSC)NC(=O)[C@H](CC(=O)O)NC(=O)[C@H](CCCNC(=N)N)NC(=O)[C@H](CCC(=O)O)NC(=O)[C@H](CC(C)C)NC(=O)[C@H](CCCCN)NC(=O)[C@H](Cc1ccccc1)NC(=O)[C@@H](N)Cc1ccccc1)C(=O)N[C@@H](CC(N)=O)C(=O)N[C@@H](CS)C(=O)N[C@@H](CO)C(=O)NCC(=O)N[C@@H](CCCCN)C(=O)O [Peptide 68.0168] | 6.94 | > 20 | – | – | > 20 | – | – | – | > 20 | – | – | – |
| PRWLCAGALVLAGGF [Peptide 68.0083] | 4.6 | – | – | > 20 | – | – | > 20 | > 20 | – | – | – | > 20 |
| CSCC[C@H](NC(=O)[C@H](CCC(=O)O)NC(=O)[C@H](CCC(N)=O)NC(=O)[C@@H]1CCCN1)C(=O)N[C@@H](CCCCN)C(=O)N[C@H](C(=O)N[C@@H](Cc1ccc(O)cc1)C(=O)N[C@@H](CO)C(=O)N[C@H](C(=O)N[C@@H](CO)C(=O)N[C@@H](Cc1ccccc1)C(=O)N[C@@H](CC(=O)O)C(=O)N[C@@H](CO)C(=O)N[C@@H](CC(C)C)C(=O)N[C@@H](Cc1ccccc1)C(=O)O)C(C)C)[C@@H](C)O [Peptide 68.0127] | 5.35 | – | – | > 20 | – | – | – | > 20 | – | – | – | > 20 |
| CC[C@H](C)[C@H](NC(=O)[C@@H](NC(=O)[C@@H](N)CO)C(C)C)C(=O)N[C@@H](CC(C)C)C(=O)N[C@@H](CC(C)C)C(=O)NCC(=O)N[C@@H](CCCNC(=N)N)C(=O)N[C@@H](Cc1c[nH]cn1)C(=O)N[C@@H](CO)C(=O)N[C@@H](CC(C)C)C(=O)N[C@@H](Cc1ccccc1)C(=O)N[C@@H](Cc1c[nH]cn1)C(=O)N1CCC[C@H]1C(=O)N[C@@H](CCC(=O)O)C(=O)N[C@@H](CC(=O)O)C(=O)O [Peptide 68.0067] | 0.091 | – | – | – | > 20 | – | – | – | – | – | – | – |
| EDFFKLERDMKINCS [Peptide 68.0167] | > 20 | > 20 | – | – | – | – | – | – | > 20 | – | – | – |
| ITFLGALKSFLKGTP [Peptide 89.0034] | 0.044 | 7.62 | – | – | 2.96 | 1.5 | 0.019 | – | 0.128 | 0.018 | – | > 20 |
| CC(C)C[C@H](NC(=O)[C@H](CCC(N)=O)NC(=O)[C@H](CC(=O)O)NC(=O)[C@H](CCC(=O)O)NC(=O)[C@H](CO)NC(=O)[C@H](CC(C)C)NC(=O)[C@@H]1CCCN1C(=O)[C@@H](NC(=O)[C@@H](N)[C@@H](C)O)C(C)C)C(=O)N[C@@H](CC(C)C)C(=O)N[C@@H](Cc1ccc(O)cc1)C(=O)N[C@@H](CC(C)C)C(=O)N1CCC[C@H]1C(=O)N[C@@H](Cc1ccccc1)C(=O)N[C@@H](CCCNC(=N)N)C(=O)O [Peptide 68.0147] | 9.69 | > 20 | – | > 20 | – | – | > 20 | > 20 | > 20 | – | – | – |
| CC(C)C[C@H](NC(=O)CNC(=O)[C@H](Cc1ccccc1)NC(=O)[C@H](CCC(=O)O)NC(=O)[C@H](CCCCN)NC(=O)[C@@H](N)Cc1c[nH]c2ccccc12)C(=O)N[C@@H](CC(=O)O)C(=O)N[C@@H](CO)C(=O)N[C@H](C(=O)N[C@@H](CCC(=O)O)C(=O)N[C@@H](CC(C)C)C(=O)N[C@@H](C)C(=O)N[C@@H](Cc1c[nH]cn1)C(=O)N[C@@H](Cc1ccc(O)cc1)C(=O)N[C@@H](CC(=O)O)C(=O)O)C(C)C [Peptide 68.0088] | > 20 | – | – | – | – | – | > 20 | – | > 20 | – | – | – |
| CC[C@H](C)[C@H](NC(=O)[C@@H](NC(=O)[C@H](Cc1c[nH]cn1)NC(=O)[C@@H](N)CC(C)C)C(C)C)C(=O)N[C@@H](CO)C(=O)N[C@@H](CC(N)=O)C(=O)N[C@@H](CC(=O)O)C(=O)N[C@H](C(=O)N[C@@H](CS)C(=O)N[C@@H](C)C(=O)N[C@@H](CCC(N)=O)C(=O)N[C@H](C(=O)N[C@@H](Cc1c[nH]cn1)C(=O)N1CCC[C@H]1C(=O)N[C@@H](CCC(N)=O)C(=O)O)C(C)C)C(C)C [Peptide 68.0077] | > 20 | > 20 | – | > 20 | – | – | > 20 | > 20 | > 20 | – | – | – |
